Entries after “also recorded” stand apart in the source; their conditions may differ.

Assay [1] addresses T1, Panx-1 channels (Homo sapiens, UniProt Q96RD7).
T1 construct: PBMCs isolated from uninfected individuals maintain the pannexin-1 channels in a closed stage; endogenous in cells; host or cells: freshly isolated human PBMCs (uninfected or HIV-infected donors)
Put plainly: Ethidium (Etd) dye uptake, PBMCs from HIV-infected individuals. Type of assay: cell-based. Conditions: for effect on spontaneous Panx-1 channel opening (Etd uptake): Prob 500 μM, 10Panx peptide 200 μM; for effect on pannexin-1 channel opening and Etd uptake: FIG. 1F legend: PROB 50 μM, CBX 50 μM, PEP 300 μM, n=60. As for the experimental part:
(§1) Dye uptake and time-lapse microscopy. To characterize the functional state of Panx-1 channels, dye-uptake experiments using ethidium (Etd) bromide were performed (Cat #15585011, ThermoFisher, Grand Island, N.Y., USA). Cells were washed twice in HBSS and then exposed to Locke's solution (containing 154 mM NaCl, 5.4 mM KCl, 2.3 mM CaCl2, 5 mM HEPES, and pH 7.4) with 5 μM Etd and time-lapse microscopy were then performed. Phase-contrast and fluorescence microscopy with time-lapse imaging were used to record cell appearance and fluorescence-intensity changes in each condition. Fluorescence was recorded every 30 s. The NIH ImageJ program was used for off-line image analysis and fluorescence quantification. For data representation and calculation of Etd uptake slopes, the average of two independent background fluorescence (FB) (expressed as A.U.) was subtracted from mean fluorescent intensity (F1). Results of this calculation (F1-FB), for at least 20 cells, were averaged and plotted against time (expressed in minutes). Slopes were calculated using Microsoft Excel software and expressed as A.U./min. The microscope and camera settings remained the same in all experiments. Dead cells or cells with a damaged plasma membrane were identified during the time-lapse microscopy as a result of their nonspecific Etd uptake rate, determined by lack of time dependency and stability in dye uptake (not inhibited by channel blockers), and were not quantified.
(§2) However, the chronic effects of HIV infection on Panx-1 channel activity were unknown. To determine the status of the channel, Panx-1 channel opening was determined by Ethidium (Etd, 5 μM) uptake rate Ethidium only crosses the plasma membrane in healthy cells by passing through specific large channels, such as Connexin (Cx) and Pannexin (Panx) hemichannels, and its rate of intracellular accumulation is reflective of channel opening.
To assess the opening of the Panx-1 channels on PBMCs isolated from HIV-infected individuals, the inventors used a similar approach as described above. The inventors analyzed Panx-1 channel opening using dye uptake rate on PBMCs isolated from 60 different HIV-infected individuals, mostly with low to undetectable replication, as described in Table 1.

Assay [2] deals with PBMCs obtained from uninfected individuals. The experiment in a line: ATP release by PBMCs from uninfected individuals (ATPlite). Type of assay: cell-based, human. The following applies: for effect on release of ATP in response to HIV-gp120: PBMCs from uninfected individuals, Prob 500 μM, 10Panx1 peptide 300 μM, TAK779 5 μM, AMD3100 5 μM; for induction of ATP secretion: treatment of uninfected PBMCs, 30 min. How it is done: (§3) ATP Assay. […] Luminescence was measured using a PerkinElmer EnVision Multilabel Plate Reader. […] To assure rigor in these determinations, some samples were submitted for blinded analysis of ATP levels using mass spectrometry (University of North Dakota, N. Dak.).
(§4) Uninfected and HIV-infected PBMCs were isolated as described above.
On the technique in general: Cellular ATP, detected with luciferase, serves as a proxy for viable cell number.

Assay [3] shares this test system. The experiment in a line: PGE2 release by PBMCs from uninfected individuals (ELISA). Type of assay: cell-based, human. The following applies: for effect on release of PGE2 in response to HIV-gp120: PBMCs from uninfected individuals, Prob 500 μM, 10Panx1 peptide 300 μM, TAK779 5 μM, AMD3100 5 μM; for induction of PGE2 secretion: treatment of uninfected PBMCs, 30 min. As for the experimental part:
(§5) Analysis of IL-1β and PGE2 release. Plasma/serum was collected, divided into aliquots, and stored at −80° C. There were no freeze-thaw cycles before analysis. Plasma/serum was analyzed for TNF-α, IL-1β (Quantikine ELISA kit; R and D Systems, Minneapolis Minn., USA) and PGE2 (Abcam, Cambridge, Mass., USA) by enzyme-linked immunosorbent assay (ELISA) according to the manufacturer's instructions.
as §4

The subject of assay [4] is PBMCs obtained from HIV-infected individuals. Put plainly: Spontaneous ATP release by PBMCs from HIV-infected individuals. Conditions: no stimulation, Prob 500 μM, 10Panx1 peptide 300 μM. Type of assay: cell-based, human. How it is done: as §3, §4
Assay [5] shares this test system. The experiment in a line: Spontaneous PGE2 release by PBMCs from HIV-infected individuals. Type of assay: cell-based, human. The following applies: no stimulation, Prob 500 μM, 10Panx1 peptide 300 μM. As for the experimental part: as §5, §4
Assay [6] has as its target T1, Panx-1 channels. Put plainly: Ethidium (Etd) dye uptake, PBMCs from uninfected individuals. It counts as cell-based. Conditions: for effect on basal Etd uptake: PBMCs from uninfected individuals, Prob 500 μM, CBX 500 μM, 10Panx peptide 200 μM, FIG. 1C; for induction of Panx-1 channel opening: treatment of uninfected PBMCs, 30 min, gp120 1 μg/ml, TNF-α 10 ng/ml, IL-1β 10 U/ml, IFN-γ 10 ng/ml, LPS 1 μg/ml. How it is done: as §1, §2

The test system of assay [7] is HIVADA infected PBMCs (lymphocytes and monocytes). Put plainly: Transmigration of HIVADA infected PBMCs across the in vitro BBB model in response to CCL2. Type of assay: cell-based, human. Conditions: added to the co-culture; oATP 100 μM, apyrase 100 units/ml; data not shown. As for the experimental part: (§6) Blood-brain barrier (BBB) model: This in vitro BBB model consists of primary human BMVEC and primary human astrocytes in co-culture on opposite sides of a gelatin-coated, 3 μm pore-size tissue culture insert (Falcon, B D, Franklin Lakes, N.J.) as described by the inventors. Co-cultures were maintained for three days to enable contact between astrocyte endfeet with BMVEC on the opposite side of the model as described. After this, the BBB model was treated with different ATP concentrations (Cat #A1852, Sigma Chemical Co., St. Louis, Mo., USA), and BBB permeability was measured using BSA conjugated to Evans Blue, as described by the inventors.
(§7) PBMCs infected with the HIVADA were added to the top chamber of BBB co-cultures without CCL2 in the bottom chamber (HIV).

A further assay deals with HIV. The experiment in a line: HIV replication and viral entry. It counts as cell-based.
A further assay has as its system purinergic receptors. Conditions: in vivo mouse model [116]; cited from earlier work.
For assay [8], the system named is BBB model (primary human BMVEC and primary human astrocytes). The experiment in a line: BBB disruption after transmigration of HIVADA infected PBMCs. Type of assay: cell-based. How it is done:
as §6, §7

Assay [9] deals with CD4 on PBMCs from uninfected individuals (human) (UniProt P01730). The experiment in a line: cell-based or functional assay.
Setting [10] is: added to the co-culture, oATP 100 μM, apyrase 100 units/ml, data not shown.

T1 sequence (Q96RD7 whole entry): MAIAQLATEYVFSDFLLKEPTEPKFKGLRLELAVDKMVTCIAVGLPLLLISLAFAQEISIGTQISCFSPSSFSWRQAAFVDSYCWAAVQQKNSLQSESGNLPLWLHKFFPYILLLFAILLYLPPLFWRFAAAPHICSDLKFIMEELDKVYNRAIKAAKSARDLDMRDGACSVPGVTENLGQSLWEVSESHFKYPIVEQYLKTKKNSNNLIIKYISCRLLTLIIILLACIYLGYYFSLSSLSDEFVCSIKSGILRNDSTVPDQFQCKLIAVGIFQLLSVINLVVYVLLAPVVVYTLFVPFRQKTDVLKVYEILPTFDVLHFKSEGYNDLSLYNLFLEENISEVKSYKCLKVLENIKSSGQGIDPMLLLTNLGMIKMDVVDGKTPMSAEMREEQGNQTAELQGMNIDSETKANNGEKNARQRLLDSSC

As for `c1cc(CN2CCCNCCNCCCNCC2)ccc1CN1CCCNCCNCCCNCC1` [AMD3100], on Panx-1 channels [1], the “effect on spontaneous Panx-1 channel opening (Etd uptake)” value (shortened to “effect … (Etd uptake)”) is given as “did not prevent”. In addition, the “effect on release of ATP in response to HIV-gp120” value (from here on “effect on release of ATP”) in assay [2] is “prevented the release”. Besides, the “effect on release of PGE2 in response to HIV-gp120” value (shortened to “effect on release of PGE2”) in [3] is “prevented the release”. In addition, in assay [4], the “effect on spontaneous release of ATP” value is listed as “no significant effects”. Further, the “effect on spontaneous release of PGE2” value in assay [5] is given as “no significant effects”.

Take `Cc1ccc(-c2ccc3c(c2)C=C(C(=O)Nc2ccc(C[N+](C)(C)C4CCOCC4)cc2)CCC3)cc1.[Cl-]` [TAK779]: at Panx-1 channels [1], the “effect … (Etd uptake)” value is recorded as “did not prevent”. In assay [2], the “effect on release of ATP” value is “prevented the release”. Moreover, in [3], the “effect on release of PGE2” value was “prevented the release”. In addition, the “effect on spontaneous release of ATP” value in assay [4] was “no significant effects”. Besides, the “effect on spontaneous release of PGE2” value in [5] is given as “no significant effects”.

Take `CC1(C)[C@@H](OC(=O)CCC(=O)O)CC[C@]2(C)[C@H]3C(=O)C=C4[C@@H]5C[C@@](C)(C(=O)O)CC[C@]5(C)CC[C@@]4(C)[C@]3(C)CC[C@@H]12` [carbenoxolone]: the “effect on basal Etd uptake” value at Panx-1 channels [6] is listed as “did not affect”. Moreover, the “effect on pannexin-1 channel opening and Etd uptake” value at Panx-1 channels [1] was “able to prevent the opening of the pannexin-1 channel and Etd uptake”.

For `[La]` [lanthanum], the “effect on basal Etd uptake” value at Panx-1 channels [6] was “did not have any effect”. Also, at Panx-1 channels [1], the “effect … (Etd uptake)” value was “did not affect”. Moreover, the “effect on release of ATP” value is reported as “did not alter” in assay [2] and “did not affect” in assay [2] (listed as Lanthanum). For the same molecule, the “effect on release of PGE2” value in [3] was “did not alter”; in assay [3] (listed as Lanthanum), “did not affect”. For the same molecule, the “effect on spontaneous release of ATP” value is on record as “did not alter” in assay [4] and “did not affect” in [4] (listed as Lanthanum). Further, the figures for the “effect on spontaneous release of PGE2” value in assay [5] and in assay [5] (listed as Lanthanum) were “did not alter” and “did not affect”, respectively.

Take `Nc1ncnc2c1ncn2[C@@H](C=O)O[C@@H](C=O)COP(=O)(O)OP(=O)(O)OP(=O)(O)O` [oATP]: the effect on transmigration result in assay [7] is recorded as “blocked”. The “inhibition of HIV replication and viral entry” value in the assay with HIV is given as “potent inhibitor”. Besides, in the assay with purinergic receptors, the “onset of diabetes and inflammatory bowel disease” value is “can prevent the onset of diabetes and inflammatory bowel disease”; the “systemic blocking of purinergic receptors” value was “good systemic blocker of purinergic receptors”. Moreover, in assay [8] (setting [10]), the “effect on BBB disruption” value was “blocked”.

As to `CCCN(CCC)S(=O)(=O)c1ccc(C(=O)O)cc1` [probenecid], on Panx-1 channels [6], the “effect on basal Etd uptake” value is recorded as “did not affect”. The “effect on pannexin-1 channel opening and Etd uptake” value on Panx-1 channels [1] is “able to prevent the opening of the pannexin-1 channel and Etd uptake”. The “effect on release of ATP” value in [2] is “prevented the release”. In addition, the “effect on release of PGE2” value in assay [3] is listed as “prevented the release”. In addition, the “effect on spontaneous release of ATP” value in [4] is “prevented the release”. In addition, in [8] (HIVADA infected PBMCs preincubated with blocker, CCL2), the “effect on BBB disruption” value was “reduced BBB disruption”. Moreover, the “effect on spontaneous release of PGE2” value in assay [5] is “prevented the release”.

“IL-1p: cytokine used to treat uninfected PBMCs”: the “induction of Panx-1 channel opening” value in the assay with Panx-1 channels [6] was “does not induce”. Also, the “induction of ATP secretion” value in [2] is “does not induce”. Also, in assay [3], the “induction of PGE2 secretion” value is given as “does not induce”.

For the molecule TNF-α, on Panx-1 channels [6], the “induction of Panx-1 channel opening” value is “does not induce”. Further, the “induction of ATP secretion” value in assay [2] is on record as “does not induce”. In assay [3], the “induction of PGE2 secretion” value is “does not induce”.

For the molecule apyrase, the effect on transmigration entry in assay [7] is reported as “blocked”. Moreover, the “effect on BBB disruption” value in [8] (setting [10]) is “blocked”.

For “recombinant protein HIV-gp120 (HIV-Bal) (ligand)”, in [9], the release of ATP after 30 min (uninfected PBMCs, gp120 1 µg/ml) was 5.9 µM and the release of PGE2 after 30 min (uninfected PBMCs, gp120 1 µg/ml) worked out at 56.8 pg/mL.

B1: IFN-γ: cytokine used to treat uninfected PBMCs (protein, UniProt P01579 24-161, looked up)
Interferon gamma: QDPYVKEAENLKKYFNAGHSDVADNGTLFLGILKNWKEESDRKIMQSQIVSFYFKLFKNFKDDQSIQKSVETIKEDMNVKFFNSNKKKRDDFEKLTNYSVTDLNVQRKAIHELIQVMAELSPAAKTGKRKRSQMLFRG
Turning to B1, the “induction of Panx-1 channel opening” value with Panx-1 channels [6] is reported as “does not induce”. Moreover, the “induction of ATP secretion” value in assay [2] is listed as “does not induce”. Also, in assay [3], the “induction of PGE2 secretion” value is “does not induce”.

B2: Cx43^E2: a peptide that specifically blocks Cx43 hemichannels (peptide)
VH: EVQLQQPGAELVKPGASVKLSCKASGYTFTSYYMYWVKQRPGQGLEWIGGINPSNGGTNFNEKFKNKATLTVDKSSSTAYMQLSSLTSEDSAVYYCTREGNPYYTMNYWGQGTSVTVSS
VL: DIVMTQSPSSLSVSAGEKVTMSCKSSQSLLNSGNQKTYLAWYQQKPGQPPKLLIYGASTRESGVPDRFTGSGSGTDFTLTISSVQAEDLAVYYCQNDHSYPFTFGSGTKLEIK
In the case of B2, the “effect on basal Etd uptake” value with Panx-1 channels [6] is given as “did not have any effect”. In the assay with Panx-1 channels [1], the “effect … (Etd uptake)” value is listed as “did not affect”. In addition, the “effect on release of ATP” value in assay [2] is “did not alter; also recorded: did not affect”. Further, the “effect on release of PGE2” value in assay [3] is given as “did not alter; also recorded: did not affect”. Also, the “effect on spontaneous release of ATP” value in [4] is “did not alter; also recorded: did not affect”. Further, in assay [5], the “effect on spontaneous release of PGE2” value is recorded as “did not alter; also recorded: did not affect”.

(Values after patent US20220080027A1, “METHODS OF TREATING NEURODEGENERATIVE DISEASES BY TARGETING THE PURINERGIC AND/OR ADENOSINE RECEPTORS” (Board of Regents, The University of Texas System, priority 2020, published 2022).)
